One experiment concerns p-CHK1 (Ser345). Briefly: AlphaLISA SureFire Ultra p-CHK1 (Ser345) cellular assay in HT29 cells. The class given is cell-based. In short, it runs like this:
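HT29 cells treated with compounds over a 10-point, 3-fold dilution series for 16 h at 37° C., then lysed; p-CHK1 (Ser345) in lysates measured by AlphaLISA SureFire Ultra (acceptor and donor steps 1 h each at room temperature). IC50 from dose-response curve fits.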

Experiment [1] deals with T1, Full-length human Chk1 protein (Homo sapiens, UniProt O14757).
T1 construct: purchased Carna Biosciences, Inc. 02-117
T1 sequence (O14757 1-476): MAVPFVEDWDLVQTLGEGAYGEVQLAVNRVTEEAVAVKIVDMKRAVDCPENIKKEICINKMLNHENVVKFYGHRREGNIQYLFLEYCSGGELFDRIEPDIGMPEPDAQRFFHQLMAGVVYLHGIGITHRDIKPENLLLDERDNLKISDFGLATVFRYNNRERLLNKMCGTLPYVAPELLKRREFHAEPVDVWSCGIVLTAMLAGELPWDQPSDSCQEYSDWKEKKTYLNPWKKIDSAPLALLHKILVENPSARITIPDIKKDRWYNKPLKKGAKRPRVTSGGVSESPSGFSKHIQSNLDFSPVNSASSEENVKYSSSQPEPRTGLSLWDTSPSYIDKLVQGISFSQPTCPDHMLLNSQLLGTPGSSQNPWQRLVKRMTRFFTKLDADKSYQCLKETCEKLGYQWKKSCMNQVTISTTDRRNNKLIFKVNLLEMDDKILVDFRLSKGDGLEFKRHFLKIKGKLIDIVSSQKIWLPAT
Put plainly: Kinase HTRF biochemical assay (HTRF KinEASE), Chk1 enzyme activity. The settings on record: full-length human Chk1, ATP 1 mM, 60 minutes at room temperature. An outline of the steps:
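Full-length human Chk1 (0.012 ng/μL) in buffer with 5 mM MgCl2 and 1 mM DTT, preincubated with compound 10 min at room temperature; reaction with 120 nM biotinylated STK substrate 1 and 1 mM ATP for 60 min at room temperature. HTRF detection via cryptate antibody/streptavidin-XL665; IC50 from 10-point duplicate curves.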
In general terms: TR-FRET usually uses a lanthanide donor and a delayed reading to cut background.

Setting [2] is: Homo sapiens, HT-29, 16 h at 37° C.

The structures appear in SMILES notation.

As for `Cc1ccc(O[C@@H]2CC[C@@H](N)C2)c(-c2cc(Nc3cnc(C#N)cn3)n[nH]2)n1` [Example 1-60, 5-((5-(3-(((1R,3R)-3-aminocyclopentyl)oxy)-6-methylpyridin-2-yl)-1H-pyrazol-3-yl)amino)pyrazine-2-carbonitrile], the IC50 is at most 50 nM in the experiment with p-CHK1 (Ser345) (setting [2]) and at most 10 nM in experiment [1].

Take `CN[C@H]1C[C@H](Oc2ccc(C)nc2-c2cc(Nc3cnc(C#N)cn3)n[nH]2)C1` [Example 1-61, 5-((5-(6-methyl-3-((1r,3r)-3-(methylamino)cyclobutoxy)pyridin-2-yl)-1H-pyrazol-3-yl)amino)pyrazine-2-carbonitrile]: the IC50 in the experiment on p-CHK1 (Ser345) (setting [2]) is 100 to 500 nM; in experiment [1], 10 to 100 nM.

`Cc1ccc(O[C@H]2C[C@H](N)C2)c(-c2cc(Nc3cnc(C#N)cn3)n[nH]2)n1` [Example 1-62, 5-((5-(3-((1r,3r)-3-aminocyclobutoxy)-6-methylpyridin-2-yl)-1H-pyrazol-3-yl)amino)pyrazine-2-carbonitrile]: the IC50 in the experiment with p-CHK1 (Ser345) (setting [2]) lay within 100 to 500 nM; in experiment [1], 10 to 100 nM.

In the case of `N#Cc1cnc(Nc2cc(-c3ncccc3O[C@@H]3CC[C@H](N)C3)[nH]n2)cn1` [Example 1-63, 5-((5-(3-(((1R,3S)-3-aminocyclopentyl)oxy)pyridin-2-yl)-1H-pyrazol-3-yl)amino)pyrazine-2-carbonitrile], the IC50 lay within 100 to 500 nM in the experiment on p-CHK1 (Ser345) (setting [2]) and 10 to 100 nM in experiment [1].

Consider `N#Cc1cnc(Nc2cc(-c3ccccc3O[C@H]3CC[C@@H](N)C3)[nH]n2)cn1` [Example 2-1, 5-((5-(2-(((1S,3R)-3-aminocyclopentyl)oxy)phenyl)-1H-pyrazol-3-yl)amino)pyrazine-2-carbonitrile], for which the IC50 in the experiment with p-CHK1 (Ser345) (setting [2]) is above 1000 nM; in experiment [1], 500 to 1000 nM.

With `COc1cccc(O[C@H]2CC[C@@H](N)C2)c1-c1cc(Nc2cnc(C#N)cn2)n[nH]1` [Example 2-2, 5-((5-(2-(((1S,3R)-3-aminocyclopentyl)oxy)-6-methoxyphenyl)-1H-pyrazol-3-yl)amino)pyrazine-2-carbonitrile], the IC50 in the experiment on p-CHK1 (Ser345) (setting [2]) lay in the range of 500 to 1000 nM; in experiment [1], 10 to 100 nM.

Take `COc1c(F)ccc(O[C@H]2C[C@H](N)C2)c1-c1cc(Nc2cnc(C#N)cn2)n[nH]1` [Example 2-3, 5-((5-(6-((1r,3r)-3-aminocyclobutoxy)-3-fluoro-2-methoxyphenyl)-1H-pyrazol-3-yl)amino)pyrazine-2-carbonitrile]: the IC50 in the experiment on p-CHK1 (Ser345) (setting [2]) fell in the range of 100 to 500 nM; in experiment [1], 10 to 100 nM.

Regarding `COc1cc(F)cc(O[C@H]2CC[C@H](N)CC2)c1-c1cc(Nc2cnc(C#N)cn2)n[nH]1` [Example 2-4, 5-((5-(2-(((lr,4r)-4-aminocyclohexyl)oxy)-4-fluoro-6-methoxyphenyl)-1 H-pyrazol-3-yl)amino)pyrazine-2-carbonitrile], the IC50 is at most 50 nM in the experiment with p-CHK1 (Ser345) (setting [2]) and at most 10 nM in experiment [1].

As for `CN[C@H]1C[C@H](Oc2cccc(F)c2-c2cc(Nc3cnc(C#N)cn3)n[nH]2)C1` [Example 2-5, 5-((5-(2-fluoro-6-((1r,3r)-3-(methylamino)cyclobutoxy)phenyl)-1H-pyrazol-3-yl)amino)pyrazine-2-carbonitrile], the IC50 with p-CHK1 (Ser345) (setting [2]) lay within 100 to 500 nM; in experiment [1], 10 to 100 nM.

With `CN[C@@H]1CC[C@@H](Oc2ccc(F)c(F)c2-c2cc(Nc3cnc(C#N)cn3)n[nH]2)C1` [Example 3-1, 5-((5-(2,3-difluoro-6-(((1R,3R)-3-(methylamino)cyclopentyl)oxy)phenyl)-1H-pyrazol-3-yl)amino)pyrazine-2-carbonitrile], the IC50 is 100 to 500 nM with p-CHK1 (Ser345) (setting [2]) and 10 to 100 nM in experiment [1].

As to `COc1cccc(O[C@@H]2CC[C@H]2N)c1-c1cc(Nc2cnc(C#N)cn2)n[nH]1` [Example 3-2, 5-((5-(2-((1R,2R)-2-aminocyclobutoxy)-6-methoxyphenyl)-1H-pyrazol-3-yl)amino)pyrazine-2-carbonitrile], the IC50 was at most 50 nM in the experiment with p-CHK1 (Ser345) (setting [2]) and at most 10 nM in experiment [1].

Turning to `COc1cccc(O[C@H]2CC[C@@H]2N)c1-c1cc(Nc2cnc(C#N)cn2)n[nH]1` [Example 3-5, 5-((5-(2-((1S,2S)-2-aminocyclobutoxy)-6-methoxyphenyl)-1H-pyrazol-3-yl)amino)pyrazine-2-carbonitrile], the IC50 in the experiment on p-CHK1 (Ser345) (setting [2]) was at most 50 nM; in experiment [1], at most 10 nM.

On to `COc1cccc(O[C@H]2CCCC[C@H](N)C2)c1-c1cc(Nc2cnc(C#N)cn2)n[nH]1` [Example 3-7, 5-((5-(2-(((1S,3S)-3-aminocycloheptyl)oxy)-6-methoxyphenyl)-1H-pyrazol-3-yl)amino)pyrazine-2-carbonitrile], for which the values for the IC50 (in the experiment on p-CHK1 (Ser345) (setting [2]); in experiment [1]) were at most 50 nM and at most 10 nM, respectively.

Consider `COc1cccc(O[C@@H]2CCCC[C@H](N)C2)c1-c1cc(Nc2cnc(C#N)cn2)n[nH]1` [Example 3-8, 5-((5-(2-(((1R,3S)-3-aminocycloheptyl)oxy)-6-methoxyphenyl)-1H-pyrazol-3-yl)amino)pyrazine-2-carbonitrile], for which the figures for the 50% inhibitory concentration (IC50) (in the experiment on p-CHK1 (Ser345) (setting [2]); in experiment [1]) were at most 50 nM and at most 10 nM, respectively.

`COc1cccc(O[C@H]2CC3(C[C@@H](N)C3)C2)c1-c1cc(Nc2cnc(C#N)cn2)n[nH]1` (some centres unmarked) [Example 3-10, 5-((5-(2-((6-aminospiro[3.3]heptan-2-yl)oxy)-6-methoxyphenyl)-1H-pyrazol-3-yl)amino)pyrazine-2-carbonitrile]: the IC50 is at most 50 nM in the experiment with p-CHK1 (Ser345) (setting [2]) and at most 10 nM in experiment [1].

Regarding `COc1cccc(O[C@H]2CC3(C[C@@H](N)C3)C2)c1-c1cc(Nc2cnc(C#N)cn2)n[nH]1` (some centres unmarked) [Example 3-11, 5-((5-(2-((6-aminospiro[3.3]heptan-2-yl)oxy)-6-methoxyphenyl)-1H-pyrazol-3-yl)amino)pyrazine-2-carbonitrile], the figures for the IC50 (with p-CHK1 (Ser345) (16 h at 37° C.); in experiment [1]) were at most 50 nM and at most 10 nM, respectively.

Consider `Cc1cccc(-c2cc(Nc3cnc(C#N)cn3)n[nH]2)c1O[C@@H]1CC[C@H](N)C1` [Example 3-12, 5-((5-(2-(((1R,3S)-3-aminocyclopentyl)oxy)-3-methylphenyl)-1H-pyrazol-3-yl)amino)pyrazine-2-carbonitrile], for which the IC50 (with p-CHK1 (Ser345) (setting [2]); in experiment [1]) was above 1000 nM in each case.

Take `N#Cc1cnc(Nc2cc(-c3cccc(F)c3O[C@@H]3CC[C@H](N)C3)[nH]n2)cn1` [Example 3-13, 5-((5-(2-(((1R,3S)-3-aminocyclopentyl)oxy)-3-fluorophenyl)-1H-pyrazol-3-yl)amino)pyrazine-2-carbonitrile]: the IC50 in the experiment on p-CHK1 (Ser345) (setting [2]) is above 1000 nM; in experiment [1] it was 100 to 500 nM.

Regarding `N#Cc1cnc(Nc2cc(-c3cccc(Cl)c3O[C@@H]3CC[C@H](N)C3)[nH]n2)cn1` [Example 3-14, 5-((5-(2-(((1R,3S)-3-aminocyclopentyl)oxy)-3-chlorophenyl)-1H-pyrazol-3-yl)amino)pyrazine-2-carbonitrile], the IC50 was above 1000 nM in the experiment on p-CHK1 (Ser345) (setting [2]) and 500 to 1000 nM in experiment [1].

`[2H]C([2H])([2H])Oc1cccc(O[C@@H]2CC[C@H](N)C2)c1-c1cc(Nc2cnc(C#N)cn2)n[nH]1` [Example 3-15, 5-((5-(2-(((1R,3S)-3-aminocyclopentyl)oxy)-6-(methoxy-d3)phenyl)-1H-pyrazol-3-yl)amino)pyrazine-2-carbonitrile]: the IC50 with p-CHK1 (Ser345) (setting [2]) is at most 50 nM; in experiment [1], at most 10 nM.

As to `Cc1ccc(O[C@@H]2CC[C@H](N)C2)c(-c2cc(Nc3cnc(C#N)cn3)n[nH]2)c1F` [Example 3-16, 5-((5-(6-(((1R,3S)-3-aminocyclopentyl)oxy)-2-fluoro-3-methylphenyl)-1H-pyrazol-3-yl)amino)pyrazine-2-carbonitrile], the IC50 in the experiment with p-CHK1 (Ser345) (setting [2]) was 100 to 500 nM; in experiment [1], 10 to 100 nM.

On to `N#Cc1cnc(Nc2cc(-c3c(O[C@@H]4CC[C@H](N)C4)ccc(F)c3F)[nH]n2)cn1` [Example 3-18, 5-((5-(6-(((1R,3S)-3-aminocyclopentyl)oxy)-2,3-difluorophenyl)-1H-pyrazol-3-yl)amino)pyrazine-2-carbonitrile], for which the IC50 in the experiment with p-CHK1 (Ser345) (setting [2]) fell in the range of 100 to 500 nM; in experiment [1], 10 to 100 nM.

Regarding `N#Cc1cnc(Nc2cc(-c3c(O[C@@H]4CC[C@H](N)C4)ccc(Cl)c3F)[nH]n2)cn1` [Example 3-19, 5-((5-(6-(((1R,3S)-3-aminocyclopentyl)oxy)-3-chloro-2-fluorophenyl)-1H-pyrazol-3-yl)amino)pyrazine-2-carbonitrile], the values for the IC50 (with p-CHK1 (Ser345) (setting [2]); in experiment [1]) were above 1000 nM and 10 to 100 nM, respectively.

Turning to `CN[C@@H]1CC[C@@H](Oc2ccc(C)c(F)c2-c2cc(Nc3cnc(C#N)cn3)n[nH]2)C1` [Example 3-20, 5-((5-(2-fluoro-3-methyl-6-(((1R,3R)-3-(methylamino)cyclopentyl)oxy)phenyl)-1H-pyrazol-3-yl)amino)pyrazine-2-carbonitrile], the IC50 with p-CHK1 (Ser345) (setting [2]) is at most 50 nM; in experiment [1], at most 10 nM.

As to `CN[C@@H]1CC[C@@H](Oc2cc(F)c(C)cc2-c2cc(Nc3cnc(C#N)cn3)n[nH]2)C1` [Example 3-21, 5-((5-(4-fluoro-5-methyl-2-(((1R,3R)-3-(methylamino)cyclopentyl)oxy)phenyl)-1H-pyrazol-3-yl)amino)pyrazine-2-carbonitrile], the IC50 with p-CHK1 (Ser345) (setting [2]) is 50 to 100 nM; in experiment [1] it was at most 10 nM.

The term IC50 denotes the concentration at which inhibition is half-maximal. High values mean weaker potency, low ones greater potency.

For the origin of these results see US11707462B2, “Checkpoint kinase 1 (CHK1) inhibitors and uses thereof” (Boundless Bio, Inc., priority 2021, dated 2023).
